# Assay results from patent publication US20110250454A1, “PREPARATION OF NEBIVOLOL” (priority 2010, published 2011).
# Where a name gives a salt, the structure may show the parent alone.
# Legend:
# [1] = natural crystalline form, not micronized; cited from earlier work
# [2] = natural crystalline form, not micronized; cited from earlier work; remark: listed apart in the source
# [3] = Particle size distribution (laser diffraction, Malvern instrument); type: physicochemical; details: Hydrochloride; for particle size distribution D10: 10 volume percent of particles smaller than value; for particle size distribution D50: 50 volume percent of particles smaller than value; for particle size distribution D90: 90 volume percent of particles smaller than value
# From the text: The D10, D50, and D90 values are useful ways for indicating particle size distributions. D90 refers to at least 90 volume percent of the particles having a size smaller than the given value. Likewise, D10 refers to 10 volume percent of the particles having a size smaller than the given value. D50 refers to 50 volume percent of the particles having a size smaller than the given value. Methods for determining D10, D50, and D90 include laser diffraction, such as using equipment from Malvern Instruments Ltd. of Malvern, Worcestershire, United Kingdom.
# [4] = Specific surface area (BET); type: physicochemical; details: BET stated for Example 8; Hydrochloride
SMILES,dissolution rate [1],bioavailability [2],particle size distribution D10 [3] [μm],particle size distribution D50 [3] [μm],particle size distribution D90 [3] [μm],Specific surface area [4] [m^2/g]
"OC(CNCC(O)C1CCc2cc(F)ccc2O1)C1CCc2cc(F)ccc2O1 (stereo not drawn) [nebivolol hydrochloride, (1RS,1′RS)-1,1′-[(2RS,2′SR)-bis(6-fluoro-3,4-dihydro-2H-1-benzopyran-2-yl)]-2,2′-iminodiethanol]",poor,poor,,,,
"OC(CNCC(O)C1CCc2cc(F)ccc2O1)C1CCc2cc(F)ccc2O1 (stereo not shown) [Example 54, Nebivolol Hydrochloride]",,,1.314,3.363,7.80,
"OC(CNCC(O)C1CCc2cc(F)ccc2O1)C1CCc2cc(F)ccc2O1 (stereo not shown) [Example 60, Nebivolol Hydrochloride]",,,1.43,3.52,9.35,
"OC(CNCC(O)C1CCc2cc(F)ccc2O1)C1CCc2cc(F)ccc2O1 (stereo not shown) [Example 56, Nebivolol Hydrochloride]",,,1.23,3.17,10.75,3.68
"OC(CNCC(O)C1CCc2cc(F)ccc2O1)C1CCc2cc(F)ccc2O1 (stereo not shown) [Example 52, Nebivolol Hydrochloride]",,,1.753,4.571,15.180,
"OC(CNCC(O)C1CCc2cc(F)ccc2O1)C1CCc2cc(F)ccc2O1 (stereo not shown) [Example 53, Nebivolol Hydrochloride]",,,1.87,4.46,11.72,
"OC(CNCC(O)C1CCc2cc(F)ccc2O1)C1CCc2cc(F)ccc2O1 (stereo not shown) [Example 55, Nebivolol Hydrochloride]",,,2.37,6.29,25.76,
"OC(CNCC(O)C1CCc2cc(F)ccc2O1)C1CCc2cc(F)ccc2O1 (stereo not shown) [Example 8, Nebivolol Hydrochloride]",,,3.94,19.1,48.4,1.2580
